Data reported in patent US20180344702A1, “METHODS FOR TREATING PATIENTS WITH HEMATOLOGIC MALIGNANCIES” (Aptose Biosciences, Inc., priority 2017, published 2018).

Experiments:
[1] = test system: Ba/F3 cells transfected with FLT3 WT; assay: Cytotoxicity in isogenic transfected Ba/F3 cells (Table 4); format: cell-based, Murin; settings: Mus musculus, BaF3; n = 3; read-out: IC50 in Transfected Ba/F3 cells, FLT3 WT
[2] = test system: Ba/F3 cells transfected with FLT3 D835Y; assay: as above; format: cell-based, Murin; settings: Mus musculus, BaF3; n = 3; read-out: IC50 in Transfected Ba/F3 cells, FLT3 D835Y
[3] = test system: Ba/F3 cells transfected with FLT3 ITD; assay: as above; format: cell-based, Murin; settings: Mus musculus, BaF3; n = 3; read-out: IC50 in Transfected Ba/F3 cells, FLT3 ITD
[4] = test system: Ba/F3 cells transfected with FLT3 ITD-D835Y; assay: as above; format: cell-based, Murin; settings: Mus musculus, BaF3; n = 3; read-out: IC50 in Transfected Ba/F3 cells, FLT3 ITD-D835Y
[5] = test system: Ba/F3 cells transfected with FLT3 ITD-F691L; assay: as above; format: cell-based, Murin; settings: Mus musculus, BaF3; n = 3; read-out: IC50 in Transfected Ba/F3 cells, FLT3 ITD-F691L
Ba/F3-FLT3 (FLT3-WT) = assay: Antiproliferative activity (Table 6); format: cell-based, Murin; settings: Ba/F3-FLT3, FLT3-WT; 48 h (Gilteritinib); read-out: IC50
Ba/F3-ITD (FLT3-ITD) = assay: Antiproliferative activity (Table 6); format: cell-based, Murin; settings: Ba/F3-ITD; 48 h (Gilteritinib); read-out: IC50
Ba/F3-D835G (FLT3-D835G) = assay: Antiproliferative activity (Table 6); format: cell-based, Murin; settings: Ba/F3-D835G; 48 h (Gilteritinib); read-out: IC50
Ba/F3-D835Y (FLT3-D835Y) = assay: Antiproliferative activity (Table 6); format: cell-based, Murin; settings: Ba/F3-D835Y; 48 h (Gilteritinib); read-out: IC50
[6] = test system: Ba/F3-ITD + 691 (ITD + F691L); assay: Antiproliferative activity (Table 6); format: cell-based, Murin; settings: Ba/F3-ITD + 691 (ITD + F691L); 48 h (Gilteritinib); read-out: IC50
[7] = test system: Ba/F3-ITD + 842 (ITD + Y842C); assay: Antiproliferative activity (Table 6); format: cell-based, Murin; settings: Ba/F3-ITD + 842 (ITD + Y842C); 48 h (Gilteritinib); read-out: IC50
[8] = test system: Ba/F3-ITD + D835Y (FLT3-ITD + D835Y); assay: Antiproliferative activity (Table 6); format: cell-based, Murin; settings: Ba/F3-ITD + D835Y; 48 h (Gilteritinib); read-out: IC50
[9] = test system: Ba/F3-ITD + D835H (FLT3-ITD + D835H); assay: Antiproliferative activity (Table 6); format: cell-based, Murin; settings: Ba/F3-ITD + D835H; 48 h (Gilteritinib); read-out: IC50
[10] = test system: MOLM13 (FLT3-ITD, t(9:11)); assay: Antiproliferative activity (Table 6); format: cell-based; settings: Homo sapiens, MOLM-13; MOLM13; 48 h (Gilteritinib); read-out: IC50
[11] = test system: MOLM14 (FLT3-ITD, t(9:11)); assay: Antiproliferative activity (Table 6); format: cell-based; settings: Homo sapiens, MOLM-14; MOLM14; 48 h (Gilteritinib); read-out: IC50
[12] = test system: MV4-11 (FLT3-ITD, t(4:11)); assay: Antiproliferative activity (Table 6); format: cell-based; settings: Homo sapiens; MV4-11; 48 h (Gilteritinib); read-out: IC50
THP-1 (FLT3-WT, t(9:11)) = assay: Antiproliferative activity (Table 6); format: cell-based; settings: Homo sapiens; THP-1; 48 h (Gilteritinib); read-out: IC50
Kasumi-1 (FLT3-WT) = assay: Antiproliferative activity (Table 6); format: cell-based; settings: Homo sapiens; Kasumi-1; 48 h (Gilteritinib); read-out: IC50
BTK WT = BTK WT (Homo sapiens, UniProt Q06187); assay: Comparative potency against BTK (Table 8); format: biochemical; settings: Table 8, wild-type BTK
BTK WT, sequence (Q06187 whole entry): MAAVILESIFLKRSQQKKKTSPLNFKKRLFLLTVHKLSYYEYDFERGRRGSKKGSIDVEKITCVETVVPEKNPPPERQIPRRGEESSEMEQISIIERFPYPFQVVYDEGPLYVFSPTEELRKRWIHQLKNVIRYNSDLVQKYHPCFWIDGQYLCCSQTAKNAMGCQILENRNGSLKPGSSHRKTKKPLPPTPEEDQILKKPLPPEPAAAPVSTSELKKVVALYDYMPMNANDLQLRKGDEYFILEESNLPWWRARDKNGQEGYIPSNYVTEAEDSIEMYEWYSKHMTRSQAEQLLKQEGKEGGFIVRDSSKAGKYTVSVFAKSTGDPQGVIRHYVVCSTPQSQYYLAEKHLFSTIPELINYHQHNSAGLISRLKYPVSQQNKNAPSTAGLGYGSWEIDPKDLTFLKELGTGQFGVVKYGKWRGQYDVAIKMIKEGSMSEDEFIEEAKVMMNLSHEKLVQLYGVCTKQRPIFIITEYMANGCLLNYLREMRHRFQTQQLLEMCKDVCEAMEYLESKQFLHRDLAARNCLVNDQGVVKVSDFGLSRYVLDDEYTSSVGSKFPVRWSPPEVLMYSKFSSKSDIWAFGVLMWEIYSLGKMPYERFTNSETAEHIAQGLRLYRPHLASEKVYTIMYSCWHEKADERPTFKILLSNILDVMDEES

BTK C481S = BTK C481S (Homo sapiens, UniProt Q06187, C481S); assay: Comparative potency against BTK (Table 8); format: biochemical; settings: x printed without key
BTK C481S, sequence (Q06187 whole entry C481S): as the sequence (Q06187 whole entry) above, with C481S counted along it

ITK = ITK (Homo sapiens, UniProt Q08881); assay: Key off-targets (Table 8); format: biochemical
ITK, sequence (Q08881 whole entry): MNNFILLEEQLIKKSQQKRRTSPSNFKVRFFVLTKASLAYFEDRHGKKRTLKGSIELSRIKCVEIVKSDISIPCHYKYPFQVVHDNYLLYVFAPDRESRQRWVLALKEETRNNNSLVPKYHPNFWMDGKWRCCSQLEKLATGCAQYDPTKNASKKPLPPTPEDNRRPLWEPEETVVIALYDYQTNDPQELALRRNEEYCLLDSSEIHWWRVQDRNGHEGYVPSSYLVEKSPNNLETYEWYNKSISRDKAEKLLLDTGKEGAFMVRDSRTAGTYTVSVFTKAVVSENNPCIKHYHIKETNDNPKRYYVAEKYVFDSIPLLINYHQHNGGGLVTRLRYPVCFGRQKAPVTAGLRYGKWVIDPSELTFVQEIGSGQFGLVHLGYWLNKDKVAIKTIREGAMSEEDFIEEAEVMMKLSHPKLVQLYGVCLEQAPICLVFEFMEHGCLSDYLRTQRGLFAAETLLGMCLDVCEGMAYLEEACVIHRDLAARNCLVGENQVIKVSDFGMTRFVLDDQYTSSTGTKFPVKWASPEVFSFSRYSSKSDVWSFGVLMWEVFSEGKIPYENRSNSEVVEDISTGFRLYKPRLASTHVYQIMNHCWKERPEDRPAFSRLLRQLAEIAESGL

Question: How did the IC50 [1] turn out when `CC1(COc2ccc3c(c2)ncn3-c2ccc3cccc(N4CCC(N)CC4)c3n2)COC1` [Crenolanib] was run?
Answer: 2620 nM

Question: What about the IC50 [2] of the same compound?
Answer: 889 nM

Question: What about the IC50 [3] of the same compound?
Answer: 35 nM

Question: And the IC50 [4]?
Answer: 31.7 nM

Question: And the IC50 [5]?
Answer: 258 nM

Question: With `CCc1nc(C(N)=O)c(Nc2ccc(N3CCC(N4CCN(C)CC4)CC3)c(OC)c2)nc1NC1CCOCC1` [Gilteritinib, reference compound] as the compound, how does the IC50 [1] read?
Answer: 500 nM

Question: And the IC50 [2]?
Answer: 472 nM

Question: And the IC50 [3]?
Answer: 26.5 nM

Question: What about the IC50 [4] of the same compound?
Answer: 6.8 nM

Question: And the IC50 [5]?
Answer: 98.4 nM

Question: What about the IC50 (Ba/F3-FLT3 (FLT3-WT)) of the same compound?
Answer: 79.5 nM

Question: And the IC50 (Ba/F3-ITD (FLT3-ITD))?
Answer: 36.2 nM

Question: And the IC50 (Ba/F3-D835G (FLT3-D835G))?
Answer: 28.1 nM

Question: What about the IC50 (Ba/F3-D835Y (FLT3-D835Y)) of the same compound?
Answer: 373 nM

Question: And the IC50 [6]?
Answer: 119 nM

Question: What about the IC50 [7] of the same compound?
Answer: 44.7 nM

Question: What about the IC50 [8] of the same compound?
Answer: 10.6 nM

Question: What about the IC50 [9] of the same compound?
Answer: 10.4 nM

Question: And the IC50 [10]?
Answer: 35.8 nM

Question: And the IC50 [11]?
Answer: 58.8 nM

Question: What about the IC50 [12] of the same compound?
Answer: 176 nM

Question: What about the IC50 (THP-1 (FLT3-WT, t(9:11))) of the same compound?
Answer: 2300 nM

Question: And the IC50 (Kasumi-1 (FLT3-WT))?
Answer: 2230 nM

Question: How did the IC50 (BTK WT) turn out when `NC(=O)[C@H]1CCN(c2ncnc(N)c2F)C[C@@H]1N1CCC[C@@H](Nc2cc(Cl)cc(C(F)(F)F)c2)C1=O` [SNS-062, reference compound] was run?
Answer: 0.4 nM

Question: And the IC50 (BTK C481S)?
Answer: 4.5 nM

Question: And the IC50 (ITK)?
Answer: 49 nM
